According to US5595903A (priority 1989, dated 1997):

Experiments:
AChE [1] = biological target: T1, AChE (Homo sapiens, UniProt P22303); experiment: biochemical; format: biochemical
AChE [2] = biological target: T1, AChE; format: biochemical
ChE = ChE (Homo sapiens, UniProt P06276); format: biochemical
[3] = human, in vivo; cited from earlier work

T1 sequence (P22303 32-614): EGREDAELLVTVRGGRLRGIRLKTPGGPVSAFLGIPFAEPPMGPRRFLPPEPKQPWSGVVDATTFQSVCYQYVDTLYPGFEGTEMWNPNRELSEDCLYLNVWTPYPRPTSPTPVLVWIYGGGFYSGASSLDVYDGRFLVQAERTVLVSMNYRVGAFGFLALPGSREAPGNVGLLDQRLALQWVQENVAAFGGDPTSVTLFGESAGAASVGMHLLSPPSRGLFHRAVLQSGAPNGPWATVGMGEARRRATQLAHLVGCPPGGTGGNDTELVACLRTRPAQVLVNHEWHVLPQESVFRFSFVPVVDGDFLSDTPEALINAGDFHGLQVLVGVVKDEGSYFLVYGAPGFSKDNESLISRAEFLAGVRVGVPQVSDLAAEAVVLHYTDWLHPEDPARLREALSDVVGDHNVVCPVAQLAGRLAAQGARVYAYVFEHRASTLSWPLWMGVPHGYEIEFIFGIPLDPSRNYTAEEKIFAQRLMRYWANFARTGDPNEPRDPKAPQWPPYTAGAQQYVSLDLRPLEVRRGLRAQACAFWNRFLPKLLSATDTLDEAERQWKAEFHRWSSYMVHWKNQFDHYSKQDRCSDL

C=CC[N+](C)(C)c1ccc(CCC(=O)CCc2ccc([N+](C)(C)CC=C)cc2)cc1 [BW284C51, 1,5-bis-(4-allyldimethylammoniumphenyl)-pentan-3-one dibromide]
AcThCho degraded (AChE [1]): 3 ± 1 pmol/hr per ng mRNA
remaining activity at 10 µM (AChE [1]): 1 ± 0.3%
sensitivity of tumor mRNA-induced AChE activity to selective inhibitor (AChE [2]): sensitive

CC(C)NP(=O)(NC(C)C)OP(=O)(NC(C)C)NC(C)C [iso-OMPA, tetraisopropylpyrophosphoramide]
AcThCho degraded (AChE [1]): 280 ± 10 pmol/hr per ng mRNA
remaining activity at 10 µM (AChE [1]): 98 ± 3%
sensitivity of oocyte-produced enzyme to inhibition (in words) (AChE [1]): totally insensitive
sensitivity of tumor mRNA-induced ChE activity to selective inhibitor (ChE): sensitive

B1: BuChE from human serum: Purified BuChE from human serum (protein, UniProt P06276 29-602, looked up)
Cholinesterase: EDDIIIATKNGKVRGMNLTVFGGTVTAFLGIPYAQPPLGRLRFKKPQSLTKWSDIWNATKYANSCCQNIDQSFPGFHGSEMWNPNTDLSEDCLYLNVWIPAPKPKNATVLIWIYGGGFQTGTSSLHVYDGKFLARVERVIVVSMNYRVGALGFLALPGNPEAPGNMGLFDQQLALQWVQKNIAAFGGNPKSVTLFGESAGAASVSLHLLSPGSHSLFTRAILQSGSFNAPWAVTSLYEARNRTLNLAKLTGCSRENETEIIKCLRNKDPQEILLNEAFVVPYGTPLSVNFGPTVDGDFLTDMPDILLELGQFKKTQILVGVNKDEGTAFLVYGAPGFSKDNNSIITRKEFQEGLKIFFPGVSEFGKESILFHYTDWVDDQRPENYREALGDVVGDYNFICPALEFTKKFSEWGNNAFFYYFEHRSSKLPWPEWMGVMHGYEIEFVFGLPLERRDNYTKAEEILSRSIVKRWANFAKYGNPNETQNNSTSWPVFKSTEQKYLTLNTESTRIMTKLRAQQCRFWTSFFPKVLEMTGNIDEAEWEWKAGFHRWNNYMMDWKNQFNDYTSKKESCVGL
effect on symptoms of OP-intoxicated patients [3]: improve the symptoms
